Experiments:
[1] = tested on: mammalian cells (HepG2 and THP-1); test: Cytotoxicity in mammalian cells, cell line not given; conditions: read-out: IC50 in mammalian cells
THP-1 cells = test: Cytotoxicity assay (Alamar Blue), THP-1; type: cell-based; conditions: Homo sapiens, THP-1, 72 h, read-out: Mammalian Cell IC50, THP1
Mtb CDC1551 = test: Intracellular ATP levels under BDQ cotreatment; conditions: 96 h
Mm (BAA-535) [2] = test: BDQ potentiation MIC99 microbroth assay, Mm; type: cell-based, Mycobacterium marinum; conditions: 6-azasteroid fixed at 20 μM; relative to BDQ MIC99 without azasteroid
HepG2 cells = test: Cytotoxicity assay (Alamar Blue), HepG2; type: cell-based, human; conditions: Homo sapiens, HepG2, 72 h, read-out: Mammalian Cell IC50, HepG2
Mm (BAA-535) [3] = tested on: Mm (BAA-535); parameters: method as in PMID 31012313; conditions: normoxic conditions; cited from earlier work
Mtb (CDC1551) [4] = test: ROS sensitivity (CellROX Green) with or without cumene hydroperoxide; type: cell-based, Mycobacterium tuberculosis
Mtb (CDC1551) [5] = test: BDQ potentiation MIC99 microbroth assay, Mtb; type: cell-based, Mycobacterium tuberculosis; conditions: 6-azasteroid fixed at 20 μM; relative to BDQ MIC99 without azasteroid
Mtb (CDC1551) [6] = tested on: Mtb (CDC1551); parameters: method as in PMID 31012313; conditions: normoxic conditions; cited from earlier work
Mtb = test: MIC of 6-azasteroid alone, Mtb; type: cell-based, Mycobacterium tuberculosis; conditions: (MIC99 reported as micromolar)
Mtb and Mm = test: BDQ potentiation MIC99 assay, species not given; type: cell-based; conditions: 6-azasteroid at 20 μM; species not stated

## CCCN1CC2C3CCC(C(=O)Nc4cc(C(C)(C)C)ccc4C(C)(C)C)[C@@]3(C)CCC2[C@@]2(C)CCC(=O)C=C12 (stereo partly shown) [compound 2]
[1]
  IC50: 25 µM
THP-1 cells
  IC50: 24 µM
Mtb CDC1551; 6-azasteroid 5 and 20 μM plus BDQ
  cellular ATP concentration in combination with BDQ, relative to BDQ treatment: less than 50%
Mtb CDC1551; 20 or 5 μM, no BDQ
  ATP production, 6-azasteroid alone: not greatly affected
Mm (BAA-535) [2]
  Fold ∆ of BDQ MIC, Mm: 9 fold
HepG2 cells
  IC50: 21 µM
Mm (BAA-535) [3]
  potentiation of the activity of isoniazid and BDQ, Mm: 8 fold
Mtb (CDC1551) [4]; 20 μM pretreatment 6 h, then 5 mM CHP 30 min, versus not pretreated
  intracellular oxidants after exogenous CHP, 6-azasteroid pretreatment: greater accumulation of intracellular oxidants
Mtb (CDC1551) [4]; 20 μM, 6 h, no peroxide
  effect on intracellular ROS levels, 6-azasteroid alone: negligible effect
Mtb (CDC1551) [5]
  Fold ∆ of BDQ MIC, Mtb: 8 fold
Mtb (CDC1551) [6]
  potentiation of the activity of isoniazid and BDQ, Mtb: 8 fold
Mtb
  Mtb MIC Alone: 37 µM
Mtb and Mm
  reduction in BDQ MIC99: greater than 8 fold

Source: paper PMC10580313, “A Chemoproteomic Approach to Elucidate the Mechanism of Action of 6-Azasteroids with Unique Activity in Mycobacteria” (ACS Infectious Diseases, 2023)
